Experimental data taken from patent US20220088016A1, “CANCER TREATMENT USING MULTI-TARGETED KINASE INHIBITOR IN COMBINATION OF PROTEIN KINASE BIOMARKERS” (ZHEJIANG CROWNMAB BIOTECH CO. LTD., priority 2019, published 2022).

Columns and labels:
MAP3K2 = MAP3K2 (Homo sapiens, UniProt Q9Y2U5); test: Kinase profiling; format: binding; details: read-out: % Ctrl @ 1000 nM
[1] = biological target: EGFR (L747-E749del, A750P) (Homo sapiens, UniProt P00533, A750P/DEL747-749); test: Kinase profiling; format: binding; details: read-out: % Ctrl @ 1000 nM
AXL = AXL (Homo sapiens, UniProt P30530); test: Kinase profiling; format: binding; details: read-out: % Ctrl @ 1000 nM
PCTK3 = PCTK3 (Homo sapiens, UniProt Q07002); test: Kinase profiling; format: binding; details: read-out: % Ctrl @ 1000 nM
Sequence of PCTK3 (Q07002 whole entry): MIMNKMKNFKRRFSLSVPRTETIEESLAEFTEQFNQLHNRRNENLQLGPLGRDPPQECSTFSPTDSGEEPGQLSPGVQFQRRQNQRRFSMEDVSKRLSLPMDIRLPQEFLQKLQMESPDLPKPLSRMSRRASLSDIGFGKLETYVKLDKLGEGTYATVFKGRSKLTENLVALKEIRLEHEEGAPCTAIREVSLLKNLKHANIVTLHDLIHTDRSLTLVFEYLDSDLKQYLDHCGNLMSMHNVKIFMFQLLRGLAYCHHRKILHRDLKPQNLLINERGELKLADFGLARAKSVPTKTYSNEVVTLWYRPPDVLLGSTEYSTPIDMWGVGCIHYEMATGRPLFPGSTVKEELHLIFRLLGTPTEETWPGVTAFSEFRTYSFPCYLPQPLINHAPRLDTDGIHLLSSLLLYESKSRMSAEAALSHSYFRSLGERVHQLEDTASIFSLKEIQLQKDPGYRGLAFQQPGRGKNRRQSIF

[2] = biological target: RSK2 (Kin.Dom.2-C-terminal) (Homo sapiens, UniProt P51812); test: Kinase profiling; format: binding; details: read-out: % Ctrl @ 1000 nM
PYK2 = PYK2 (Homo sapiens, UniProt Q14289); test: Kinase profiling; format: binding; details: read-out: % Ctrl @ 1000 nM
LRRK2 (G2019S) = LRRK2 (G2019S) (Homo sapiens, UniProt Q5S007, G2019S); test: Kinase profiling; format: binding; details: read-out: % Ctrl @ 1000 nM
PIK3CA (E542K) = PIK3CA (E542K) (Homo sapiens, UniProt P42336, E542K); test: Kinase profiling; format: binding; details: read-out: % Ctrl @ 1000 nM
DCAMKL3 = DCAMKL3 (Homo sapiens, UniProt Q9C098); test: Kinase profiling; format: binding; details: read-out: % Ctrl @ 1000 nM
CSNK1A1L = CSNK1A1L (Homo sapiens, UniProt Q8N752); test: Kinase profiling; format: binding; details: read-out: % Ctrl @ 1000 nM
RIOK3 = RIOK3 (Homo sapiens, UniProt O14730); test: Kinase profiling; format: binding; details: read-out: % Ctrl @ 1000 nM
FLT4 = FLT4 (Homo sapiens, UniProt P35916); test: Kinase profiling; format: binding; details: read-out: % Ctrl @ 1000 nM
ABL1-phosphorylated = ABL1-phosphorylated (Homo sapiens, UniProt P00519); test: Kinase profiling; format: binding; details: read-out: % Ctrl @ 1000 nM
NIM1 = biological target: T1, NIM1 (Homo sapiens, UniProt Q8IY84); test: Kinase profiling; format: binding; details: read-out: % Ctrl @ 1000 nM
T1 construct: T7 phage fusion (said for most assays); made in house

TSSK3 = TSSK3 (Homo sapiens, UniProt Q96PN8); test: Kinase profiling; format: binding; details: read-out: % Ctrl @ 1000 nM
Sequence of TSSK3 (Q96PN8 whole entry): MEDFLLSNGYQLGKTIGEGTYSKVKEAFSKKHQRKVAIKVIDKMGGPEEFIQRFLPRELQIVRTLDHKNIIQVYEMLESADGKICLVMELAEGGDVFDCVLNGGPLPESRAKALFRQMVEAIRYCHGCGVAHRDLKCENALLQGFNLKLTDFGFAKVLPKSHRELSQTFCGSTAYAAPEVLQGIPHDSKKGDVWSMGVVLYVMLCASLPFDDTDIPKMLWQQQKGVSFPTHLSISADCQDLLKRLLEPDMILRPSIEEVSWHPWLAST

FGFR1 = FGFR1 (Homo sapiens, UniProt P11362); test: Kinase profiling; format: binding; details: read-out: % Ctrl @ 1000 nM
PRKCI = PRKCI (Homo sapiens, UniProt P41743); test: Kinase profiling; format: binding; details: read-out: % Ctrl @ 1000 nM
MST3 = biological target: T2, MST3 (Homo sapiens, UniProt Q9Y6E0); test: Kinase profiling; format: binding; details: read-out: % Ctrl @ 1000 nM
T2 construct: T7 phage fusion (said for most assays); made in house

ALK (C1156Y) = ALK (C1156Y) (Homo sapiens, UniProt Q9UM73, C1156Y); test: Kinase profiling; format: binding; details: read-out: % Ctrl @ 1000 nM
MAPKAPK5 = MAPKAPK5 (Homo sapiens, UniProt Q8IW41); test: Kinase profiling; format: binding; details: read-out: % Ctrl @ 1000 nM
LATS1 = LATS1 (Homo sapiens, UniProt O95835); test: Kinase profiling; format: binding; details: read-out: % Ctrl @ 1000 nM
DYRK2 = DYRK2 (Homo sapiens, UniProt Q92630); test: Kinase profiling; format: binding; details: read-out: % Ctrl @ 1000 nM
Sequence of DYRK2 (Q92630 whole entry): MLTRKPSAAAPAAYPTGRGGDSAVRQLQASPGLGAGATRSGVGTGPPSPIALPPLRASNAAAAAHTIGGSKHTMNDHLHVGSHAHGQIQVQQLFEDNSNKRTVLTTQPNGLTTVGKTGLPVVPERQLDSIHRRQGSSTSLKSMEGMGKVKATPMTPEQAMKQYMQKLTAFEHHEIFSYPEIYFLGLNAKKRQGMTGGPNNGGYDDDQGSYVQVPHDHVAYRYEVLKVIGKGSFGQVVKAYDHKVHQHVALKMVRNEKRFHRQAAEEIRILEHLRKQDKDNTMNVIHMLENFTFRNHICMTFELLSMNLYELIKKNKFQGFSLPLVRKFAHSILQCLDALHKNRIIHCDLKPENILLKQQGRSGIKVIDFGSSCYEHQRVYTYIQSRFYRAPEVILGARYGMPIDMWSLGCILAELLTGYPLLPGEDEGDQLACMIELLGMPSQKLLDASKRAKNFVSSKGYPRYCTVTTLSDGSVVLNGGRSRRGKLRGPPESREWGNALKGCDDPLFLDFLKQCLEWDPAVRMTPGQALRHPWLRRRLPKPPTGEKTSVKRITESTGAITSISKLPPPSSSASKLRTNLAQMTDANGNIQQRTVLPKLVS

PDGFRA = PDGFRA (Homo sapiens, UniProt P16234); test: Kinase profiling; format: binding; details: read-out: % Ctrl @ 1000 nM
Sequence of PDGFRA (P16234 24-1089): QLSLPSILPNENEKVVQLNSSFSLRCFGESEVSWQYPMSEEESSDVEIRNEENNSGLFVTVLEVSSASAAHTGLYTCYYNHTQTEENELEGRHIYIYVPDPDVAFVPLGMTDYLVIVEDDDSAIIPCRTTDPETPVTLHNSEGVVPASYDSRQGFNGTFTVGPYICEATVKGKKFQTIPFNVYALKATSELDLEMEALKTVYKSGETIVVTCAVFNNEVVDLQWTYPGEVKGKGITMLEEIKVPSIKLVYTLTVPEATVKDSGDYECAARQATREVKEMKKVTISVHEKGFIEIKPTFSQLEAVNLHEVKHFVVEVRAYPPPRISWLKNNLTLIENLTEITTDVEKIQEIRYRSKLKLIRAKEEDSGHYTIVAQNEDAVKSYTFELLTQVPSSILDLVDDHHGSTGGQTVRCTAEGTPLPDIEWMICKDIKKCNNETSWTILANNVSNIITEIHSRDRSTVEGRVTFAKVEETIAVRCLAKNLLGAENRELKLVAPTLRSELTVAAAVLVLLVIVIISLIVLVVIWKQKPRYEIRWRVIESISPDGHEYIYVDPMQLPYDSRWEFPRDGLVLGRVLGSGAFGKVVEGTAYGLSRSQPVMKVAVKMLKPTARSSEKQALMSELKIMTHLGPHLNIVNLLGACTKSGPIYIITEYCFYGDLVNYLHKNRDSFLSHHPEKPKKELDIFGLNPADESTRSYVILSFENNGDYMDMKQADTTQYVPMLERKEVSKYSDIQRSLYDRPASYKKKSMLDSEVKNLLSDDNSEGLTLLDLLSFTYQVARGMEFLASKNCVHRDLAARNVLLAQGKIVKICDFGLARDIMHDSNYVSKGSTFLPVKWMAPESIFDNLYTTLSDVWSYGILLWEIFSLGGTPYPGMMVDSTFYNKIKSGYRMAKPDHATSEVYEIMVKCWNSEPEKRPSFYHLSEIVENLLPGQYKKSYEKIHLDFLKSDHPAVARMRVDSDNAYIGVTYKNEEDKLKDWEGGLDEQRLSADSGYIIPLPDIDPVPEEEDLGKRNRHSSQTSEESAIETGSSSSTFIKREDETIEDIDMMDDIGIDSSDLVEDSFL

DDR2 = DDR2 (Homo sapiens, UniProt Q16832); test: Kinase profiling; format: binding; details: read-out: % Ctrl @ 1000 nM
Sequence of DDR2 (Q16832 22-855): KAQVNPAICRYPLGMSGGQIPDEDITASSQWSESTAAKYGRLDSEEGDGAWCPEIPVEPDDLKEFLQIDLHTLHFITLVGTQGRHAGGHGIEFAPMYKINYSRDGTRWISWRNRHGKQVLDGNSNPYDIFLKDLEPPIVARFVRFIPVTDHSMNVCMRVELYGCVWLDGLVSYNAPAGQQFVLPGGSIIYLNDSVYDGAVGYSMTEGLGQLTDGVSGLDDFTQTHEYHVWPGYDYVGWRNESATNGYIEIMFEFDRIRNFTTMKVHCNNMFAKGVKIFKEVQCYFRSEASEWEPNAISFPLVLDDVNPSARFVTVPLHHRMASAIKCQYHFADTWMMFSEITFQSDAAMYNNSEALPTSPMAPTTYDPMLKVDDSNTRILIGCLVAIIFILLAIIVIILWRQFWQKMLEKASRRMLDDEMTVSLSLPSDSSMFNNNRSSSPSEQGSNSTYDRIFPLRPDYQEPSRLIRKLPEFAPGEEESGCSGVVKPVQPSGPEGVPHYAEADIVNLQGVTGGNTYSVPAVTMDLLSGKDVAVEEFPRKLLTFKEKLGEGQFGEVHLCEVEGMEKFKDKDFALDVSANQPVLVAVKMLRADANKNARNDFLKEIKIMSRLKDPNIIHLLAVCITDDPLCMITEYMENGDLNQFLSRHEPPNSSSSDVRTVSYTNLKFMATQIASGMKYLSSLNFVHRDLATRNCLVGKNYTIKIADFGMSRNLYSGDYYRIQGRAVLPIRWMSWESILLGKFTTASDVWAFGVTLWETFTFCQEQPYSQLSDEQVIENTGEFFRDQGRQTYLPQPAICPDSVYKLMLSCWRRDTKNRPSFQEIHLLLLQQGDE

M-NFS-60 cells = test: Proliferation of M-NFS-60 cells (CTG assay); format: cell-based, mouse; details: M-NFS-60 (CSF-1 dependent), 3 days
Description: Two syngeneic cell lines M-NFS-60 and RAW264.7 and engineered BaF3 hCSFIR cell line were starved and then tested with CBT-102 and other test articles for 3 days in the temperature of 37° C., 5% CO2 and 95% humidity. The cell viability was then detected using CTG assay. The software of GraphPad Prism was used to calculate IC50.
CSF-1 dependent mouse myeloid M-NFS-60 cells were employed as target cells while a CSF-1 independent cell line Raw 264.7 was used as a negative control. In addition to CBT-102, the study also included 3 CSF-1R inhibitors: GW2580, BLZ945 and Pexidartinib.

NEK6 = biological target: T3, NEK6 (Homo sapiens, UniProt Q9HC98); test: Kinase profiling; format: binding; details: read-out: % Ctrl @ 1000 nM
T3 construct: T7 phage fusion (said for most assays); made in house
T3 sequence (Q9HC98 whole entry, the tested form may be a part): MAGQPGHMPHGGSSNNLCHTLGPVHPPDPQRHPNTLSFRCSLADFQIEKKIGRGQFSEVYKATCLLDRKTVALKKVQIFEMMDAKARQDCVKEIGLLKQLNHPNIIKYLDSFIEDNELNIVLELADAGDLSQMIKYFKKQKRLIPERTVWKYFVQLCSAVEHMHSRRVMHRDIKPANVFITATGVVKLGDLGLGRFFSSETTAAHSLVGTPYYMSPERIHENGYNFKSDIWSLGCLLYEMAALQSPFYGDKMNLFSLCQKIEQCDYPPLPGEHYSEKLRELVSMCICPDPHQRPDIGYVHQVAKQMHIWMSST

FER = FER (Homo sapiens, UniProt P16591); test: Kinase profiling; format: binding; details: read-out: % Ctrl @ 1000 nM
EGFR (L858R, T790M) = EGFR (L858R, T790M) (Homo sapiens, UniProt P00533, L858R/T790M); test: Kinase profiling; format: binding; details: read-out: % Ctrl @ 1000 nM
Sequence of EGFR (L858R, T790M) (P00533 25-1210 T790M/L858R): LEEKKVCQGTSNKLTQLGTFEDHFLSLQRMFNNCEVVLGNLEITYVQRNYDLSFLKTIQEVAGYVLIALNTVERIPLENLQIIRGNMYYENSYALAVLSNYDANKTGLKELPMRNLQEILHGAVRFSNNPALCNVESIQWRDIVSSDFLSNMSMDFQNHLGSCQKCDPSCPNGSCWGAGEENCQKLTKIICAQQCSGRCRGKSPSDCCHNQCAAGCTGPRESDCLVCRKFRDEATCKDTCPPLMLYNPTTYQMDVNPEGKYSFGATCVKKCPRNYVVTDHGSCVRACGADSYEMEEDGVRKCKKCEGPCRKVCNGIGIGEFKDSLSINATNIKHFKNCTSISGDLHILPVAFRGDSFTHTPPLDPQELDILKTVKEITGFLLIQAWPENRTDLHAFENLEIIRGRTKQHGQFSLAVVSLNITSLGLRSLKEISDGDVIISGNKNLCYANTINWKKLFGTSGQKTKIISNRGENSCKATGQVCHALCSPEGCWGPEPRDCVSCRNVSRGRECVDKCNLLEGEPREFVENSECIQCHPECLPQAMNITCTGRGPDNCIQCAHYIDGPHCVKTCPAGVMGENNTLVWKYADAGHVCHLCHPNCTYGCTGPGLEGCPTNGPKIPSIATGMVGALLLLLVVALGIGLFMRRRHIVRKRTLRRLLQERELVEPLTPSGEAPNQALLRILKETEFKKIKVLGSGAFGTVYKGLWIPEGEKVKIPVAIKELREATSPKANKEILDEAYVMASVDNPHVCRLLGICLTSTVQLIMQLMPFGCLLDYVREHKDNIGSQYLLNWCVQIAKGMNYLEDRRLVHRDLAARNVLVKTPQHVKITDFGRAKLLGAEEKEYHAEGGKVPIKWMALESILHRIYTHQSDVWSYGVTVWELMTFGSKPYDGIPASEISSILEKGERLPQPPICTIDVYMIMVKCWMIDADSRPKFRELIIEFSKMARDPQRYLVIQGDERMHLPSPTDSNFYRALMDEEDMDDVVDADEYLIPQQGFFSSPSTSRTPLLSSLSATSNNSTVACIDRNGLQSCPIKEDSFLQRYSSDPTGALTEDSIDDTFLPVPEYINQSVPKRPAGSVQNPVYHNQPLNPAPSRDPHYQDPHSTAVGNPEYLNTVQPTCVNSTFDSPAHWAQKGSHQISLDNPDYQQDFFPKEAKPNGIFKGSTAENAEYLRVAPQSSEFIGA

PLK3 = PLK3 (Homo sapiens, UniProt Q9H4B4); test: Kinase profiling; format: binding; details: read-out: % Ctrl @ 1000 nM
ERK5 = ERK5 (Homo sapiens, UniProt Q13164); test: Kinase profiling; format: binding; details: read-out: % Ctrl @ 1000 nM
[3] = biological target: RPS6KA5 (Kin.Dom.2-C-terminal) (Homo sapiens, UniProt O75582); test: Kinase profiling; format: binding; details: read-out: % Ctrl @ 1000 nM
Sequence of RPS6KA5 (Kin.Dom.2-C-terminal) (O75582 426-687 limits assumed): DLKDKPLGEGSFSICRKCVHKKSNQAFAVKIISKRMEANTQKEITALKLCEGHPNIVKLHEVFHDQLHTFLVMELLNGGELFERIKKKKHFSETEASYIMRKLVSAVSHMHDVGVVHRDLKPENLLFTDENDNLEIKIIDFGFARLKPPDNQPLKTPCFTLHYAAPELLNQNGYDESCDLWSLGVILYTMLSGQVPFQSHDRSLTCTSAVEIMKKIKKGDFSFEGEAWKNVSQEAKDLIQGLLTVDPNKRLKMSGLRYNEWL

[4] = biological target: ABL1 (H396P)-phosphorylated (Homo sapiens, UniProt P00519, H396P); test: Kinase profiling; format: binding; details: read-out: % Ctrl @ 1000 nM
AKT1 = AKT1 (Homo sapiens, UniProt P31749); test: Kinase profiling; format: binding; details: read-out: % Ctrl @ 1000 nM
TGFBR1 = TGFBR1 (Homo sapiens, UniProt P36897); test: Kinase profiling; format: binding; details: read-out: % Ctrl @ 1000 nM
PCTK1 = PCTK1 (Homo sapiens, UniProt Q00536); test: Kinase profiling; format: binding; details: read-out: % Ctrl @ 1000 nM

Q: Which results are given for `Cc1cc(Oc2cc(NC(=O)C3CC3)ncn2)ccc1NC(=O)Nc1ccc(Cl)c(C(F)(F)F)c1` [CBT-102]?
A: remaining activity at 1 µM (MAP3K2): 90%; remaining activity at 1 µM [1]: 80%; remaining activity at 1 µM (AXL): 56%; remaining activity at 1 µM (PCTK3): 84%; remaining activity at 1 µM [2]: 83%; remaining activity at 1 µM (PYK2): 93%; remaining activity at 1 µM (LRRK2 (G2019S)): 38%; remaining activity at 1 µM (PIK3CA (E542K)): 96%; remaining activity at 1 µM (DCAMKL3): 100%; remaining activity at 1 µM (CSNK1A1L): 100%; remaining activity at 1 µM (RIOK3): 65%; remaining activity at 1 µM (FLT4): 0.05%; remaining activity at 1 µM (ABL1-phosphorylated): 67%; remaining activity at 1 µM (NIM1): 82%; remaining activity at 1 µM (TSSK3): 100%; remaining activity at 1 µM (FGFR1): 61%; remaining activity at 1 µM (PRKCI): 74%; remaining activity at 1 µM (MST3): 89%; remaining activity at 1 µM (ALK (C1156Y)): 97%; remaining activity at 1 µM (MAPKAPK5): 93%; remaining activity at 1 µM (LATS1): 80%; remaining activity at 1 µM (DYRK2): 89%; remaining activity at 1 µM (PDGFRA): 2.1%; remaining activity at 1 µM (DDR2): 1.1%; IC50 (M-NFS-60 cells): 343 nM; IC50 (M-NFS-60 cells; Mus musculus, 72 h): 631 nM; remaining activity at 1 µM (NEK6): 100%; remaining activity at 1 µM (FER): 73%; remaining activity at 1 µM (EGFR (L858R, T790M)): 86%; remaining activity at 1 µM (PLK3): 97%; remaining activity at 1 µM (ERK5): 88%; remaining activity at 1 µM [3]: 100%; remaining activity at 1 µM [4]: 83%; remaining activity at 1 µM (AKT1): 100%; remaining activity at 1 µM (TGFBR1): 100%; remaining activity at 1 µM (PCTK1): 88%
